Results on 14 test systems are retold here after the supplement of paper PMC8920030.

Common to all, as to details: growth mode: biofilm, 24 h; exposure time: 24 h
Compound in assay [1]: T1, CCC(C)CCCC(=O)N[C@@H](CCN)C(=O)N[C@H](C(=O)N[C@@H](CCN)C(=O)N[C@H]1CCNC(=O)[C@H]([C@@H](C)O)NC(=O)[C@H](CCN)NC(=O)[C@H](CCN)NC(=O)[C@H](CC(C)C)NC(=O)[C@@H](CC(C)C)NC(=O)[C@H](CCN)NC1=O)[C@@H](C)O [colistin]
The assay can be described thus: minimum concentration eradicating biofilm below detection limit (MCK-E); higher = more biofilm tolerance. Here is the method:
(§1)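 Clinical P. aeruginosa isolates were grown as static biofilms for 24 h at 37 °C in LB in half-area 96-well plates, then exposed for 24 h to colistin at 1, 4, 16, 64, 256 or […]. Surviving CFU were counted by spotting serial dilutions. MCK is the lowest tested concentration giving the stated log reduction in CFU versus an untreated control; '>1024' means the reduction was not reached at the top dose, and 1 is the lowest dose tested (≤1).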

Compound in assay [2]: T2, NC[C@H]1O[C@H](O[C@H]2[C@H](O)[C@@H](O[C@H]3O[C@H](CO)[C@@H](O)[C@H](N)[C@H]3O)[C@H](N)C[C@@H]2N)[C@H](N)C[C@@H]1O [tobramycin]
The assay is described as above. On the procedure:
(§2)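 Clinical P. aeruginosa isolates were grown as static biofilms for 24 h at 37 °C in LB in half-area 96-well plates, then exposed for 24 h to tobramycin at 1, 4, 16, 64, 256 or […]. Surviving CFU were counted by spotting serial dilutions. MCK is the lowest tested concentration giving the stated log reduction in CFU versus an untreated control; '>1024' means the reduction was not reached at the top dose, and 1 is the lowest dose tested (≤1).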

Compound in assay [3]: T1, colistin
As to the kind of experiment: minimum concentration of killing, 1-log CFU reduction of biofilm (MCK90); higher = more biofilm tolerance. Here is the method:
as §1

Compound in assay [4]: T1, colistin
As to the kind of experiment: minimum concentration of killing, 2-log CFU reduction of biofilm (MCK99); higher = more biofilm tolerance. On the procedure: as §1

Compound in assay [5]: T2, tobramycin
As to the kind of experiment: minimum concentration of killing, 1-log CFU reduction of biofilm (MCK90); higher = more biofilm tolerance. On the procedure:
as §2

Compound in assay [6]: T2, tobramycin
As to the kind of experiment: minimum concentration of killing, 2-log CFU reduction of biofilm (MCK99); higher = more biofilm tolerance. On the procedure:
as §2

Compound in assay [7]: T1, colistin
As to the kind of experiment: minimum concentration of killing, 4-log CFU reduction of biofilm (MCK99.99); higher = more biofilm tolerance. On the procedure: as §1

Compound in assay [8]: T2, tobramycin
The description is as above. On the procedure:
as §2

For the test system “Pseudomonas aeruginosa clinical isolate ESP003”, the “minimum concentration eradicating biofilm below detection limit” value in assay [1] was found to be 256 µg/mL; in assay [2], 1020 µg/mL. For the same test system, the “minimum concentration of killing” value worked out at 256 µg/mL in assay [3]; 256 µg/mL in assay [4]; 16 µg/mL in assay [5]; 256 µg/mL in assay [6]; 256 µg/mL in assay [7]; 1020 µg/mL in assay [8].

With “Pseudomonas aeruginosa clinical isolate ESP004”, the “minimum concentration eradicating biofilm below detection limit” value in assay [1] was 256 µg/mL; in assay [2] it was > 1020 µg/mL. The “minimum concentration of killing” value stood at 64 µg/mL in assay [3]; 256 µg/mL in assay [4]; 256 µg/mL in assay [5]; 1020 µg/mL in assay [6]; 256 µg/mL in assay [7]; 1020 µg/mL in assay [8].

For “Pseudomonas aeruginosa clinical isolate ESP006”, the “minimum concentration eradicating biofilm below detection limit” value in assay [1] amounted to 256 µg/mL; in assay [2] it was 1020 µg/mL. The “minimum concentration of killing” value was found to be 64 µg/mL in assay [3]; 64 µg/mL in assay [4]; 16 µg/mL in assay [5]; 64 µg/mL in assay [6]; 64 µg/mL in assay [7]; 256 µg/mL in assay [8].

Regarding “Pseudomonas aeruginosa clinical isolate ESP009”, the “minimum concentration eradicating biofilm below detection limit” value was determined as 64 µg/mL in assay [1] and 1020 µg/mL in assay [2]. Also, the “minimum concentration of killing” value in assay [3] amounted to 64 µg/mL; in assay [4], 64 µg/mL; in assay [5], 16 µg/mL; in assay [6] it was 16 µg/mL; in assay [7], 64 µg/mL; in assay [8], 256 µg/mL.

In the case of “Pseudomonas aeruginosa clinical isolate ESP011”, the “minimum concentration eradicating biofilm below detection limit” value in assay [1] amounted to 64 µg/mL; in assay [2], 1020 µg/mL. Moreover, the “minimum concentration of killing” value in assay [3] stood at 16 µg/mL; in assay [4], 16 µg/mL; in assay [5], 16 µg/mL; in assay [6], 256 µg/mL; in assay [7], 64 µg/mL; in assay [8] it was 1020 µg/mL.

For the test system “Pseudomonas aeruginosa clinical isolate ESP012”, the “minimum concentration eradicating biofilm below detection limit” value in assay [1] was 64 µg/mL; in assay [2], > 1020 µg/mL. For the same test system, the “minimum concentration of killing” value in assay [3] was 64 µg/mL; in assay [4] it was 64 µg/mL; in assay [5], 256 µg/mL; in assay [6], > 1020 µg/mL; in assay [7] it was 64 µg/mL; in assay [8], > 1020 µg/mL.

Consider “Pseudomonas aeruginosa clinical isolate ESP013”, for which the figures for the “minimum concentration eradicating biofilm below detection limit” value in assay [1] and in assay [2] were 1020 µg/mL and > 1020 µg/mL, respectively. Moreover, the “minimum concentration of killing” value is 64 µg/mL in assay [3]; 64 µg/mL in assay [4]; > 1020 µg/mL in assay [5]; > 1020 µg/mL in assay [6]; 256 µg/mL in assay [7]; > 1020 µg/mL in assay [8].

In the case of “Pseudomonas aeruginosa clinical isolate ESP015”, the “minimum concentration eradicating biofilm below detection limit” value in assay [1] and in assay [2] was 256 µg/mL in each case. The “minimum concentration of killing” value is 64 µg/mL in assay [3]; 256 µg/mL in assay [4]; 4 µg/mL in assay [5]; 64 µg/mL in assay [6]; 256 µg/mL in assay [7]; 256 µg/mL in assay [8].

As for “Pseudomonas aeruginosa clinical isolate ESP020”, the “minimum concentration eradicating biofilm below detection limit” value in assay [1] and in assay [2] was 256 µg/mL in each case. Moreover, the “minimum concentration of killing” value in assay [3] is 64 µg/mL; in assay [4], 256 µg/mL; in assay [5] it was 4 µg/mL; in assay [6] it was 256 µg/mL; in assay [7], 256 µg/mL; in assay [8] it was 256 µg/mL.

With “Pseudomonas aeruginosa clinical isolate ESP021”, the “minimum concentration eradicating biofilm below detection limit” value worked out at 256 µg/mL in assay [1] and 64 µg/mL in assay [2]. Moreover, the “minimum concentration of killing” value in assay [3] was 16 µg/mL; in assay [4], 64 µg/mL; in assay [5], 4 µg/mL; in assay [6] it was 4 µg/mL; in assay [7], 256 µg/mL; in assay [8], 64 µg/mL.

In the case of “Pseudomonas aeruginosa clinical isolate ESP022”, the “minimum concentration eradicating biofilm below detection limit” value in assay [1] and in assay [2] was 256 µg/mL in each case. Besides, the “minimum concentration of killing” value came out at 256 µg/mL in assay [3]; 256 µg/mL in assay [4]; 16 µg/mL in assay [5]; 16 µg/mL in assay [6]; 256 µg/mL in assay [7]; 16 µg/mL in assay [8].

For the test system “Pseudomonas aeruginosa clinical isolate ESP023”, the “minimum concentration eradicating biofilm below detection limit” value was determined as 64 µg/mL in assay [1] and 16 µg/mL in assay [2]. The “minimum concentration of killing” value in assay [3] was 64 µg/mL; in assay [4], 64 µg/mL; in assay [5] it was ≤ 1 µg/mL; in assay [6], 16 µg/mL; in assay [7], 64 µg/mL; in assay [8], 16 µg/mL.

As for “Pseudomonas aeruginosa clinical isolate ESP024”, the figures for the “minimum concentration eradicating biofilm below detection limit” value in assay [1] and in assay [2] were 256 µg/mL and 64 µg/mL, respectively. In addition, the “minimum concentration of killing” value in assay [3] was 4 µg/mL; in assay [4], 4 µg/mL; in assay [5], ≤ 1 µg/mL; in assay [6], 4 µg/mL; in assay [7], 256 µg/mL; in assay [8], 16 µg/mL.

As to “Pseudomonas aeruginosa clinical isolate ESP025”, the “minimum concentration eradicating biofilm below detection limit” value in assay [1] is 64 µg/mL; in assay [2], > 1020 µg/mL. For the same test system, the “minimum concentration of killing” value was 16 µg/mL in assay [3]; 16 µg/mL in assay [4]; 1020 µg/mL in assay [5]; > 1020 µg/mL in assay [6]; 16 µg/mL in assay [7]; > 1020 µg/mL in assay [8].
